A word on the pIC50: it is −log10 of the IC50, conventionally taken in molar units. The MIC is the least concentration at which growth counts as inhibited. As a reminder, the IC50 is the concentration needed to halve the response being measured.

This note sets out measurements from patent publication US20090155395A1 (SAGITTARIUS LIFE SCIENCE CORP., priority 2007, published 2009).

Test [1] has as its target T1, Human recombinant Cyclooxygenase-2 expressed in Sf21 cells (Homo sapiens, UniProt P35354).
T1 construct: purchased Sigma C-0858; host or cells: Sf21 cells
T1 sequence (P35354 18-604): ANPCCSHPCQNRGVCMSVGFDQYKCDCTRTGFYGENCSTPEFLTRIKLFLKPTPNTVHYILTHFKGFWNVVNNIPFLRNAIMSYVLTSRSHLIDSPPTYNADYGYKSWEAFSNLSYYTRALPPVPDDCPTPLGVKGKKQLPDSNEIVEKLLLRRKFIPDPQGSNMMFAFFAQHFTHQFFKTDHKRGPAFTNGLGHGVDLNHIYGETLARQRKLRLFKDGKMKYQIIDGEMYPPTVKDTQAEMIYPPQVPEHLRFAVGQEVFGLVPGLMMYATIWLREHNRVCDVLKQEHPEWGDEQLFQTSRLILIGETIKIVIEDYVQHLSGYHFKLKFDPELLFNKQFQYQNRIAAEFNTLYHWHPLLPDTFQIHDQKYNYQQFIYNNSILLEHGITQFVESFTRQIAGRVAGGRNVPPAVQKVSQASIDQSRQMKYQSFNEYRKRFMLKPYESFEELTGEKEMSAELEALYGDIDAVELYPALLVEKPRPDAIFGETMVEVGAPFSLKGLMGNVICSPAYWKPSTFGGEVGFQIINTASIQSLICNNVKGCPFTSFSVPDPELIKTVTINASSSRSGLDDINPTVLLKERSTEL
The test can be described thus: COX II inhibition (PGE2 EIA). Format: biochemical. Conditions: human recombinant enzyme, 0.3 μM arachidonic acid. Here is the method:
The reaction was initiated by addition of 0.3 μM arachidonic acid for 5 minutes and terminated by further addition of 1 N HCl. Following centrifugation, substrate conversion to PGE2 was measured by an Amersham EIA kit.

Test [2] has as its system Propionibacterium acnes (ATCC 6919). Kind of test: Minimum inhibitory concentration (MIC), broth dilution method. It is filed as cell-based. Here is the method:
Minimum inhibitory concentration (MIC) was determined by the broth dilution method (Edwards, J. R. et. al., Antimicrob Agents Chemother. 1989; 33(2):215-22).
10 ul aliquot (1% DMSO final concentration) of serial dilutions were added into 0.99 ml of Reinforced Clostridial Medium (Oxiod, England.) with 1-5×10^5 CFU/ml of Propionibacterium acnes (ATCC 6919). […] Vehicle-control and active reference agents were used as blank and positive controls, respectively.
(In broth dilution the organism is exposed to a series of concentrations in liquid medium.)

The nature of test [3]: Free radical scavenger, SOD mimetic activity (xanthine-xanthine oxidase / NBT reduction). The note with it: inhibition of NBT reduction, pH 10.5, 25° C., 20 minutes. It is filed as biochemical. Here is the method:
(§1) The method to measure SOD (SOD, EC.1.15.1.1) activity was based on the inhibition of nitroblue tetrazolium reduction with xanthine-xanthine oxidase used as a superoxide generator (Sun Y, et. al., Clin. Chem. 1988; 34: 497-500).
(§2) Conversion of xanthine to uric acid +O^−+NBT to formazan was then determined by measurement of absorbance at 595 nm and percent inhibition by superoxide dismutase mimetic or test compound was calculated.

Test [4] has as its target xanthine-xanthine oxidase (superoxide generator). The test can be described thus: Superoxide dismutase (SOD) mimetic activity, inhibition of nitroblue tetrazolium reduction. Format: biochemical. The note with it: 0.12 mM xanthine, 6 mU xanthine oxidase, 27 μM NBT, pH 10.5, 25° C., 20 minutes. As to the method:
as §1, §2

In test [5] the target is T2, Steroid 5-α-reductase isolated from liver of Wistar rat (Rattus norvegicus, UniProt P24008).
T2 construct: isolated from liver of Wistar rat by conventional centrifugation; from tissue; host or cells: liver of Wistar rat
T2 sequence (P24008 1-259): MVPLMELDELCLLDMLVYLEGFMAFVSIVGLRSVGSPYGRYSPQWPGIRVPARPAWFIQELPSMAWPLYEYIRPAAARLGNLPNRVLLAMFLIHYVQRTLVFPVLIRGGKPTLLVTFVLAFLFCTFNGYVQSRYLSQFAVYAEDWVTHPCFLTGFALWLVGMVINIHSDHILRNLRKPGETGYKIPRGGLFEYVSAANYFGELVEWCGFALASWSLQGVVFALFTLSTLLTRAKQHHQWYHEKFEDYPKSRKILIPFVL
Kind of test: Steroid 5-α-reductase inhibition (testosterone EIA). It is filed as biochemical. Conditions: rat liver enzyme, 1 μM testosterone, 30 minutes. The source says:
Steroid 5-α-reductase isolated from liver of Wistar rat by conventional centrifugation was used (Liang T, et. al., Endocrinology. 1985;117(2): 571-9).
The reaction was terminated by addition of 1 N HCl and neutrilized by 1 N NaOH. Testosterone was quantitated by using a Testosterone EIA Kit.

Setting [6] is: Cutibacterium acnes, ATCC6919, broth dilution, 37° C., 48 hours, anaerobic, read-out: MIC.

pIC50: −log10 of the molar value. Values after ≈ are worked out from the molar mass of the structure shown. Read-outs that look alike come from different tables or passages of the source.

Consider `O=C(O)c1cccnc1Nc1cccc(C(F)(F)F)c1` [Niflumic acid], for which the pIC50 in test [1] was 6.16.

With `CC1(C)S[C@@H]2[C@H](NC(=O)[C@H](N)c3ccccc3)C(=O)N2[C@H]1C(=O)O` [Ampicillin], the MIC in test [2] (setting [6]) amounted to 0.1 µg/mL (≈ 0.286 µM). Turning to `CN(C)[C@@H]1C(O)=C(C(N)=O)C(=O)[C@@]2(O)C(O)=C3C(=O)c4c(O)cccc4[C@@](C)(O)[C@H]3C[C@@H]12` [Tetracycline], in test [2] (setting [6]), the MIC came to 1 µg/mL (≈ 2.25 µM). As for Gentamicin, the MIC in test [2] (broth dilution, 37° C., 48 hours, anaerobic) was 30 µg/mL. In the case of “Superoxide dismutase (SOD): standard reference agent used, Human SOD MW = 2 × 28.3 KDa”, the “IC50, SOD mimetic activity” value in test [3] was 0.475 µg/mL. Regarding `O=C(O[C@@H]1Cc2c(O)cc(O)cc2O[C@@H]1c1ccc(O)c(O)c1)c1cc(O)c(O)c(O)c1` [(−)-Epicatechin gallate], the “IC50, SOD mimetic activity” value in test [3] came to 2.698 µg/mL (≈ 6.1 µM). Also, the IC50 in test [4] worked out at 2.698 µg/mL (≈ 6.1 µM).

As for `CC1COc2c(N3CCN(C)CC3)c(F)cc3c(=O)c(C(=O)O)cn1c23` (centres unmarked) [Ofloxacin], the MIC in test [2] (setting [6]) stood at 1 µg/mL (≈ 2.77 µM). Compound `CN[C@H](CC(C)C)C(=O)N[C@H]1C(=O)N[C@@H](CC(N)=O)C(=O)N[C@H]2C(=O)N[C@H]3C(=O)N[C@H](C(=O)N[C@H](C(=O)O)c4cc(O)cc(O)c4-c4cc3ccc4O)[C@H](O)c3ccc(c(Cl)c3)Oc3cc2cc(c3O[C@@H]2O[C@H](CO)[C@@H](O)[C@H](O)[C@H]2O[C@H]2C[C@](C)(N)[C@H](O)[C@H](C)O2)Oc2ccc(cc2Cl)[C@H]1O` [Vancomycin] registered an MIC in test [2] (Cutibacterium acnes, ATCC6919, 48 h) of 1 µg/mL (≈ 0.69 µM). In test [5], `CC(C)(C)NC(=O)[C@H]1CC[C@H]2[C@@H]3CC[C@H]4NC(=O)C=C[C@]4(C)[C@H]3CC[C@]12C` [Finasteride] gave a pIC50 of 7.60.

Compound `CCCCC/C=C\C/C=C\C/C=C\CCCCC(=O)O` [γ-Linolenic Acid] showed a pIC50 in test [5] of 4.85.
